Assay results from ChEMBL document CHEMBL4840370, “Irilone, a Red Clover Isoflavone, Combined with Progesterone Enhances PR Signaling through the Estrogen and Glucocorticoid Receptors” (J Nat Prod, 2021).
Active and inactive are the calls of the source.

Legend:
[1] = biological target: T1, Glucocorticoid receptor (Homo sapiens) (UniProt P04150); test: Induction of glucocorticoid receptor in human Ishikawa PR-B cells assessed as potentiation of progesterone transcriptional activity by measuring increase in HRE-Luc activity at 10 uM measured after 24 hrs in presence of 5 to 100 nM progesterone by HRE-dependent dual luciferase reporter gene assay; format: cell-based; conditions: filed as activator
T1 sequence (whole entry): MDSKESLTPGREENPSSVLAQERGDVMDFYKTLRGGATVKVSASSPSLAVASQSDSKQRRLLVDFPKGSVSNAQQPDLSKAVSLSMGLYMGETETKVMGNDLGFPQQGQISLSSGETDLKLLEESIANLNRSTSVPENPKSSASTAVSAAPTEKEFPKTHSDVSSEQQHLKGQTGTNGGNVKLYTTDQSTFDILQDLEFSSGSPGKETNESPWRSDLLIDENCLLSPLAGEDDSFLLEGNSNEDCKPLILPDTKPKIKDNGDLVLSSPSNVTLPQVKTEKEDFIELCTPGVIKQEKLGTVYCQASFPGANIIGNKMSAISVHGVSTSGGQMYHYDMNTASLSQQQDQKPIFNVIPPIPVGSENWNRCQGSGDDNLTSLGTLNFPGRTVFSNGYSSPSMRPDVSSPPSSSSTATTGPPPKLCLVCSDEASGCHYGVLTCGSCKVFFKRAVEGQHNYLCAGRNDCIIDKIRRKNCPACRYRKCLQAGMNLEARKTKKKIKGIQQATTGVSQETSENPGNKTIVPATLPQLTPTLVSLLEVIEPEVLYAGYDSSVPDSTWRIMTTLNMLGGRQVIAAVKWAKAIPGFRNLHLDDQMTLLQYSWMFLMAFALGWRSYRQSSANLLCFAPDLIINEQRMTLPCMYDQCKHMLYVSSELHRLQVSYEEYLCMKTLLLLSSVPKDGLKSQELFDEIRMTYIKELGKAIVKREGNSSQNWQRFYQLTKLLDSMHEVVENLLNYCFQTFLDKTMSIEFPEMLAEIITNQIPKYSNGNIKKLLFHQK

Ishikawa [2] = test: Effect on PR-B protein expression in human Ishikawa PR-B cells at 10 uM incubated for 24 hrs by western blot analysis; format: functional, cell-based
[3] = biological target: T2, Estrogen receptor (Homo sapiens) (UniProt P03372); test: Induction of estrogen receptor in human T47D cells assessed as increase in HRE-luc activity at 10 uM measured after 24 hrs by HRE-dependent dual luciferase reporter gene assay relative to control; format: cell-based; conditions: filed as activator
T2 sequence (whole entry): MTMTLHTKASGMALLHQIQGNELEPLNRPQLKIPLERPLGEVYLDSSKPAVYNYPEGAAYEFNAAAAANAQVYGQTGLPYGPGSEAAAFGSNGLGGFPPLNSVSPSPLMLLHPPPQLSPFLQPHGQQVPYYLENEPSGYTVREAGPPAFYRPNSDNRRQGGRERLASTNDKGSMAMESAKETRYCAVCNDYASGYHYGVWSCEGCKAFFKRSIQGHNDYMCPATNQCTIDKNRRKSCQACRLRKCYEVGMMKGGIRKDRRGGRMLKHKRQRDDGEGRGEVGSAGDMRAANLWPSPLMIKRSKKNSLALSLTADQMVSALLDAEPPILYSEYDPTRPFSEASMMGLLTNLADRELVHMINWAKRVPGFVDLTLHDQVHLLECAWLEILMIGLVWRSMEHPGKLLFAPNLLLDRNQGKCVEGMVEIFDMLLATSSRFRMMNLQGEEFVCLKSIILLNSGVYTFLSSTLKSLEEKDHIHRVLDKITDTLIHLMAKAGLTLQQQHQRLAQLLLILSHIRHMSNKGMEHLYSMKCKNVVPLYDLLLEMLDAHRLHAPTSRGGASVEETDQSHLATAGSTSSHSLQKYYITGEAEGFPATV

[4] = Induction of HRE/Luc activity in human Ishikawa PR-B cells transfected with GR siRNA at 10 uM incubated for 24 hrs in presence of progesterone by luciferase reporter gene assay relative to control; format: functional
Ishikawa [5] = test: Potentiation of progesterone signalling in human Ishikawa null cells transfected with wild type PR assessed as induction of HRE/uc activity at 10 uM incubated for 24 hrs in presence of progesterone by luciferase reporter gene assay relative to control; format: functional
T47D [6] = test: Effect on R5020-induced PR-A phosphorylation at Ser294 residue in human T47D cells at 10 uM incubated for 60 mins by western blot analysis; format: functional, cell-based
T47D [7] = test: Effect on PR-B phosphorylation at Ser294 residue in human T47D cells at 10 uM incubated for 60 mins by western blot analysis; format: functional, cell-based
OVCAR-5 [8] = test: Repression of dexamethasone-induced HRE/Luc activity in human OVCAR-5 cells at 10 uM incubated for 24 hrs by luciferase reporter gene assay; format: functional
Ishikawa [9] = test: Effect on PR-A protein expression in human Ishikawa PR-B cells at 10 uM incubated for 24 hrs by western blot analysis; format: functional, cell-based
Mus musculus = test: In vivo potentiation of progesterone signalling in ovariectomized CD-1 mouse assessed as increase in FKBP5 expression in reproductive tract at 4 mg/kg, ip administered once a day for 7 days in presence of progesterone and measured on day 7 at 6 hrs post-last dosage by immunohistochemistry; format: functional, organism-based; conditions: time 7.0 day
Ishikawa [10] = test: Decrease in PR-A protein expression in human Ishikawa PR-B cells at 10 uM incubated for 24 hrs in presence of 100 nM progesterone by western blot analysis; format: functional, cell-based
[11] = Induction of epithelial cells proliferation in uterus of ovariectomized CD-1 mouse at 4 mg/kg, ip administered once a day for 7 days and measured on day 7 at 6 hrs post-last dosage by PCNA staining based immunohistochemistry (reference value: 33.3%); format: organism-based; conditions: in vivo, 168 h, time 7 day
[12] = biological target: T2, Estrogen receptor (Homo sapiens); test: Induction of estrogen receptor in human T47D cells assessed as potentiation of progesterone transcriptional activity by measuring increase in HRE-Luc activity at 10 uM measured after 24 hrs in presence of 5 nM progesterone by HRE-dependent dual luciferase reporter gene assay; format: cell-based; conditions: filed as activator
[13] = biological target: T2, Estrogen receptor (Homo sapiens); test: Induction of estrogen receptor in human T47D cells assessed as increase in PR-B protein expression at 10 uM incubated for 24 hrs in presence of progesterone by western blot analysis; format: cell-based
[14] = biological target: T1, Glucocorticoid receptor (Homo sapiens); test: Induction of glucocorticoid receptor in human Ishikawa PR-B cells transfected with scrambled siRNA assessed as potentiation of progesterone signalling by measuring increase in HRE/Luc activity at 10 uM incubated for 24 hrs in presence of progesterone by luciferase reporter gene assay relative to control; format: cell-based; conditions: filed as activator
Ishikawa [15] = test: Increase in PR-B protein expression in human Ishikawa PR-B cells at 10 uM incubated for 24 hrs in presence of 100 nM progesterone by western blot analysis; format: functional, cell-based
Ishikawa [16] = test: Decrease in PR-B protein expression in human Ishikawa PR-B cells at 10 uM incubated for 24 hrs in presence of 100 nM progesterone by western blot analysis; format: functional, cell-based
Ishikawa [17] = test: Induction of HRE/Luc activity in human Ishikawa null cells at 10 uM incubated for 24 hrs in presence of progesterone by luciferase reporter gene assay; format: functional, cell-based
[18] = biological target: T2, Estrogen receptor (Homo sapiens); test: Induction of estrogen receptor in human T47D cells assessed as increase in PR-A protein expression at 10 uM incubated for 24 hrs in presence of progesterone by western blot analysis; format: cell-based
T47D [19] = test: Effect on PR-A phosphorylation at Ser294 residue in human T47D cells at 10 uM incubated for 60 mins by western blot analysis; format: functional, cell-based
Ishikawa [20] = test: Increase in PR-A protein expression in human Ishikawa PR-B cells at 10 uM incubated for 24 hrs in presence of 100 nM progesterone by western blot analysis; format: functional, cell-based
Ishikawa [21] = test: Increase in GR protein expression in human Ishikawa PR-B cells at 10 uM incubated for 24 hrs by western blot analysis; format: functional, cell-based
[22] = biological target: T1, Glucocorticoid receptor (Homo sapiens); test: Agonist activity at GR in human OVCAR-5 cells assessed as induction of HRE/Luc activity at 1 to 10 uM incubated for 24 hrs by luciferase reporter gene assay; format: cell-based; conditions: dose 1-10 µM
Ishikawa [23] = test: Potentiation of progesterone receptor signalling in human Ishikawa null cells transfected with wild type PR assessed as induction of HRE/uc activity at 10 uM incubated for 24 hrs by luciferase reporter gene assay relative to control; format: functional
[24] = biological target: T2, Estrogen receptor (Homo sapiens); test: Induction of estrogen receptor in human T47D cells assessed as increase in PR-B protein expression at 10 uM incubated for 24 hrs in presence of SERM, 4-OH-TAM and progesterone by western blot analysis; format: cell-based
[25] = biological target: T2, Estrogen receptor (Homo sapiens); test: Induction of estrogen receptor in human T47D cells assessed as increase in PR-B protein expression at 10 uM incubated for 24 hrs in presence of SERM, 4-OH-TAM by western blot analysis; format: cell-based
OVCAR-5 [26] = test: Increase in GR protein expression in human OVCAR-5 cells at 10 uM incubated for 24 hrs by western blot analysis; format: functional, cell-based
T47D [27] = test: Effect on R5020-induced PR-B phosphorylation at Ser294 residue in human T47D cells at 10 uM incubated for 60 mins by western blot analysis; format: functional, cell-based
[28] = Induction of epithelial cells proliferation in uterus of ovariectomized CD-1 mouse at 4 mg/kg, ip administered once a day for 7 days in presence of progesterone and measured on day 7 at 6 hrs post-last dosage by PCNA staining based immunohistochemistry (reference value: 7%); format: organism-based; conditions: in vivo, 168 h, time 7 day
[29] = biological target: T2, Estrogen receptor (Homo sapiens); test: Induction of estrogen receptor in human T47D cells assessed as increase in ERE/Luc activity at 10 uM measured after 24 hrs by luciferase reporter gene assay relative to control; format: cell-based; conditions: filed as activator
[30] = biological target: T1, Glucocorticoid receptor (Homo sapiens); test: Induction of glucocorticoid receptor in human Ishikawa PR-B cells assessed as increase in HRE-luc activity at 10 uM measured after 24 hrs by HRE-dependent dual luciferase reporter gene assay relative to control; format: cell-based; conditions: filed as activator
[31] = biological target: T2, Estrogen receptor (Homo sapiens); test: Induction of estrogen receptor in human T47D cells assessed as increase in PR-B protein expression at 10 uM incubated for 24 hrs by western blot analysis; format: cell-based; conditions: filed as activator
Ishikawa [32] = test: Induction of HRE/Luc activity in human Ishikawa null cells at 10 uM incubated for 24 hrs by luciferase reporter gene assay; format: functional, cell-based
[33] = biological target: T2, Estrogen receptor (Homo sapiens); test: Induction of estrogen receptor in human T47D cells assessed as increase in PR-A protein expression at 10 uM incubated for 24 hrs in presence of SERM, 4-OH-TAM by western blot analysis; format: cell-based
OVCAR-5 [34] = test: Repression of dexamethasone-induced HRE/Luc activity in human OVCAR-5 cells at 1 to 5 uM incubated for 24 hrs by luciferase reporter gene assay; format: functional, cell-based; conditions: dose 1-5 µM
[35] = biological target: T2, Estrogen receptor (Homo sapiens); test: Induction of estrogen receptor in human T47D cells assessed as increase in PR-A protein expression at 10 uM incubated for 24 hrs by western blot analysis; format: cell-based; conditions: filed as activator
[36] = biological target: T2, Estrogen receptor (Homo sapiens); test: Induction of estrogen receptor in human T47D cells assessed as increase in PR-A protein expression at 10 uM incubated for 24 hrs in presence of SERM, 4-OH-TAM and progesterone by western blot analysis; format: cell-based

O=c1c(-c2ccc(O)cc2)coc2cc3c(c(O)c12)OCO3
30: fold change (FC) [4]
18.4%: Activity [11]
inactive: Activity (Ishikawa [2]) | Activity (T47D [6]) | Activity (T47D [7]) | Activity (Ishikawa [9]) | Activity (Mus musculus) | inhibition (Ishikawa [10]) | Activity [13] | Activity (Ishikawa [15]) | inhibition (Ishikawa [16]) | Activity (Ishikawa [17]) | Activity [18] | Activity (T47D [19]) | Activity (Ishikawa [20]) | Activity [22] | Activity [24] | Activity [25] | Activity (OVCAR-5 [26]) | Activity (T47D [27]) | Activity (Ishikawa [32]) | Activity [33] | inhibition (OVCAR-5 [34]) | Activity [36]
active: Activity [1] | Activity [12] | Activity (Ishikawa [21]) | Activity [31] | Activity [35]
38: fold change (FC) (Ishikawa [5])
44: fold change (FC) [14]
5.8: fold change (FC) (Ishikawa [23])
4: fold change (FC) [29]
22%: inhibition at 10 µM (OVCAR-5 [8])
1.2: fold change (FC) [30]
1.07: fold change (FC) [3]
0.93%: Activity [28]
